Legend:
Assay type in all cases: in vivo
[1] = test system: Nilaparvata lugens (brown plant hopper - nymphs); experiment: Contact test, brown plant hopper - nymphs (NL), Rice plant; conditions: 72 h, 3 days, read-out: NL grading of mortality
Method in brief: (§1)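 Mortality scored 1–7 days post-treatment. Test liquids at 100–500 ppm (acetone stock diluted into water + 0.1% w/w wetting agent) applied to pests, their plant/food medium, or both.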

[2] = test system: Musca domestica (houseflies - adults); experiment: Knockdown test, houseflies - adults (MD/KD), Cotton wool/sugar; conditions: 4 hours, read-out: MD/KD grading of knockdown
Method in brief: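 Product was dissolved in acetone and diluted with water containing 0.1% wetting agent to 100–500 ppm. The flies and/or their food medium were treated with the preparation. Mortality was scored 1–7 days after treatment, with an additional knockdown assessment for houseflies.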

[3] = test system: Tetranychus urticae (spider mites - adult); experiment: Contact test, spider mites - adult (TUa), French bean leaf; conditions: 72 h, 3 days, read-out: TUA grading of mortality
Method in brief: as §1

[4] = test system: Musca domestica (houseflies - adults); experiment: Contact test, houseflies - adults (MD), Cotton wool/sugar; conditions: 24 h, 1 day, read-out: MD grading of mortality
Method in brief: as §1

[5] = test system: Heliothis virescens (tobacco budworm - larvae); experiment: Residual test, tobacco budworm - larvae (HV), Cotton leaf; conditions: 72 h, read-out: HV grading of mortality
Method in brief: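 Products applied as acetone solutions diluted in water with 0.1% wetting agent, at 100–500 ppm; pests on host plant or food, with pests and/or medium treated. Mortality or knockdown scored 1–7 days after treatment and graded A (80–100%), B (50–79%) or C (<50%).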

[6] = test system: Meloidogyne incognita (Tomato root knot eelworm - larvae); experiment: Residual test, Tomato root knot eelworm - larvae (MI), Semi in-vitro; conditions: 168 h, application rate is half that recorded, 7 days, read-out: MI grading of mortality; for mortality at 250 µg/mL: rate column 500 ppm
Method: The activity of the Product was determined using a variety of insect pests. The Product was used in the form of liquid preparations containing from 100 to 500 parts per million (ppm) by weight of the Product. The preparations were made by dissolving the Product in acetone and diluting the solutions with water containing 0.1% by weight of a wetting agent sold under the trade name "SYNPERONIC" NX until the liquid preparations contained the required concentration of the Product.
The test procedure adopted with regard to each pest was basically the same and comprised supporting a number of the pests on a medium which was usually a host plant or a foodstuff on which the pests feed, and treating either or both the pests and the medium with the preparations. The mortality of the pests was then assessed at periods usually varying from one to seven days after the treatment.
The results of the tests are given in Table III for each of the Products, at the rate in parts per million given in the second column as a grading of mortality designated as A, B or C wherein A indicates 80-100% mortality or knockdown (70-100% for Meloidogyne incognita), B indicates 50-79% mortality knockdown or knockdown (50-69% for Meloidogyne incognita) and C indicates less than 50% mortality or knockdown.

[7] = test system: Diabrotica balteata (rootworm larvae); experiment: Residual test, rootworm larvae (DB), Filter paper/maize seed; conditions: 72 h, 3 days, read-out: DB grading of mortality
Method in brief: as §1

Myzus persicae (aphids) = experiment: Contact test, aphids (MP), Chinese Cabbage leaf; conditions: 72 h, 3 days, read-out: MP grading of mortality
Method in brief: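 Aphids on a host plant and/or the plant itself were treated with 100–500 ppm of product, applied from acetone diluted in water containing 0.1% SYNPERONIC NX wetting agent. Mortality was scored usually one to seven days after treatment.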

[8] = test system: Blattella germanica (cockroach nymphs); experiment: Residual test, cockroach nymphs (BG), Plastic pot; conditions: 72 h, 3 days, read-out: BG grading of mortality
Method in brief: as §1

[9] = test system: Spodoptera exigua (lesser army worm - larvae); experiment: Residual test, lesser army worm - larvae (SP), Cotton leaf; conditions: 72 h, 3 days, read-out: SP grading of mortality
Method in brief: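 Compound dissolved in acetone and diluted in water with 0.1% Synperonic NX wetting agent to 100–500 ppm. Pests on host plant or food, with pests and/or medium treated. Mortality assessed 1–7 days after treatment and graded A (80–100%), B (50–79%) or C (<50%).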

[10] = test system: Tetranychus urticae (spider mites - ova); experiment: Contact test, spider mites - ova (TUe), French bean leaf; conditions: 144 h, 6 days, read-out: TUE grading of mortality
Method in brief: as §1

SMILES | mortality at 500 ppm [1] | pest or weed control at 500 ppm [2] | mortality at 500 ppm [3] | mortality at 500 ppm [4] | mortality at 500 ppm [5] | mortality at 250 µg/mL [6] | mortality at 500 ppm [7] | mortality at 500 ppm (Myzus persicae (aphids)) | mortality at 500 ppm [8] | mortality at 500 ppm [9] | mortality at 500 ppm [10] | further results
Fc1cc(C(=CC=Cc2cccc(Oc3ccccc3)c2)C(F)(F)F)cc(F)c1OC(F)(F)F [Compound 75, 1,1,1-Trifluoro-2-(3,5-difluoro-4-trifluoromethoxyphenyl)-5-(3-phenoxyphenyl)penta-2,4-diene] | < 50% | < 50% | < 50% | < 50% | < 50% | < 50% | < 50% | < 50% | < 50% | < 50% | < 50% | –
CCOc1c(F)cc(C(=CC=Cc2ccc(F)c(Oc3ccccc3)c2)C(F)(F)F)cc1F [Compound 67, 1,1,1-Trifluoro-2-(3,5-difluoro-4-ethoxyphenyl)-5-(4-fluoro-3-phenoxyphenyl)penta-2,4-diene] | 80 to 100% | < 50% | < 50% | < 50% | 80 to 100% | < 50% | 80 to 100% | 80 to 100% | < 50% | 80 to 100% | < 50% | –
CCOc1ccc(C(CCC(C)c2cccc(Oc3ccccc3)c2)C(F)(F)F)cc1 (racemic) [Compound 55, 1,1,1-Trifluoro-2-(4-ethoxyphenyl)-5-(3-phenoxyphenyl)hexane] | 80 to 100% | 80 to 100% | < 50% | 80 to 100% | 80 to 100% | < 50% | 50 to 79% | 80 to 100% | 80 to 100% | 80 to 100% | < 50% | –
FC(F)C(F)(F)Oc1ccc(C(CCCc2cccc(Oc3ccccc3)c2)C(F)(F)F)cc1 (racemic) [Compound 63, 1,1,1-trifluoro-2-[4-(1,1,2,2-tetrafluoroethoxy)phenyl]-5-(3-phenoxyphenyl)pentane] | 80 to 100% | 80 to 100% | 80 to 100% | 80 to 100% | 80 to 100% | < 50% | 80 to 100% | 80 to 100% | 80 to 100% | 80 to 100% | 80 to 100% | –
CCOc1c(F)cc(C(CCCc2ccc(F)c(Oc3ccccc3)c2)C(F)(F)F)cc1F (racemic) [Compound 64, 1,1,1-Trifluoro-2-(3,5-difluoro-4-ethoxyphenyl)-5-(4-fluoro-3-phenoxyphenyl)pentane] | 80 to 100% | 80 to 100% | 80 to 100% | 80 to 100% | 80 to 100% | < 50% | 50 to 79% | 80 to 100% | 80 to 100% | 80 to 100% | 80 to 100% | –
CCOc1ccc(C(CCC(C#N)c2cccc(Oc3ccccc3)c2)C(F)(F)F)cc1 (racemic) [Compound 54, 1,1,1-Trifluoro-2-(4-ethoxyphenyl)-5-cyano-5-(3-phenoxyphenyl)pentane] | 80 to 100% | 80 to 100% | < 50% | 80 to 100% | 80 to 100% | < 50% | < 50% | 80 to 100% | < 50% | 80 to 100% | < 50% | –
CC1Oc2ccc(C(CCCc3cccc(Oc4ccccc4)c3)C(F)(F)F)cc2O1 (centres unmarked) [Compound 61, 1,1,1-Trifluoro-2-[3,4-(methylmethylenedioxy)-phenyl]-5-(3-phenoxyphenyl)pentane] | 80 to 100% | 80 to 100% | < 50% | 80 to 100% | 80 to 100% | < 50% | 80 to 100% | 80 to 100% | 80 to 100% | 80 to 100% | < 50% | –
FC(F)(F)Oc1ccc(C(=CC=Cc2cccc(Oc3ccccc3)c2)C(F)(F)Cl)cc1 [Compound 70, 1,1-Difluoro-1-chloro-2-(4-trifluoromethoxyphenyl)-5-(3-phenoxyphenyl)penta-2,4-diene] | < 50% | < 50% | < 50% | < 50% | < 50% | 50 to 69% | < 50% | < 50% | < 50% | < 50% | < 50% | –
COCc1ccc(C(CCCc2cccc(Oc3ccccc3)c2)C(F)(F)F)cc1 (racemic) [Compound 45, 1,1,1-Trifluoro-2-(4-methoxymethylphenyl)-5-(3-phenoxyphenyl)pentane] | 80 to 100% | 80 to 100% | < 50% | 80 to 100% | 80 to 100% | < 50% | 80 to 100% | < 50% | < 50% | 80 to 100% | < 50% | –
Fc1ccc(C(CCCc2cccc(Oc3ccccc3)c2)C(F)(F)F)c(F)c1OC(F)(F)F (racemic) [Compound 72, 1,1,1-Trifluoro-2-(2,4-difluoro-3-trifluoromethoxyphenyl)-5-(3-phenoxyphenyl)-pentane] | 50 to 79% | < 50% | 50 to 79% | < 50% | 80 to 100% | < 50% | 80 to 100% | 80 to 100% | 80 to 100% | 80 to 100% | < 50% | –
CCOc1c(F)cc(C(CCCc2cccc(Oc3ccccc3)c2)C(F)(F)F)cc1F (racemic) [Compound 57, 1,1,1-Trifluoro-2-(3,5-difluoro-4-ethoxyphenyl)-5-(3-phenoxyphenyl)pentane] | 80 to 100% | 80 to 100% | 80 to 100% | 80 to 100% | 80 to 100% | < 50% | 80 to 100% | 80 to 100% | 80 to 100% | 80 to 100% | 80 to 100% | –
FC(F)(F)C(CCCc1cccc(Oc2ccccc2)c1)c1ccc2c(c1)CCC2 (racemic) [Compound 52, 1,1,1-Trifluoro-2-(5-indanyl)-5-(3-phenoxyphenyl)pentane] | – | – | – | – | – | – | – | – | – | – | – | mortality at 250 ppm ([1]; 250 ppm): 80 to 100%; pest or weed control at 250 ppm ([2]; 250 ppm): < 50%; mortality at 250 ppm ([3]; 250 ppm): 80 to 100%; mortality at 250 ppm ([4]; 250 ppm): 50 to 79%; mortality at 250 ppm [5]: 80 to 100%; mortality at 125 µg/mL ([6]; rate 250 ppm): < 50%; mortality at 250 ppm ([7]; 250 ppm): < 50%; mortality at 250 ppm (Myzus persicae (aphids); 250 ppm): 50 to 79%; mortality at 250 ppm ([8]; 250 ppm): 80 to 100%; mortality at 250 ppm ([9]; 250 ppm): 80 to 100%; mortality at 250 ppm ([10]; 250 ppm): < 50%
CCOc1ccc(C(CC=Cc2c(F)c(F)c(F)c(F)c2F)C(F)(F)F)cc1 (centres unmarked) [Compound 42, 1,1,1-Trifluoro-2-(4-ethoxyphenyl)-5-(pentafluorophenyl)pent-4-ene] | < 50% | < 50% | < 50% | < 50% | < 50% | < 50% | 80 to 100% | < 50% | < 50% | < 50% | < 50% | –

Reference: US4791139A, “Diphenyl ether derivatives and their use as insecticides” (Imperial Chemical Industries PLC, priority 1986, dated 1988)
